Results from patent publication US20250129095A1, “ANNULATED 2-AMINO-3-CYANO THIOPHENES AND DERIVATIVES FOR THE TREATMENT OF CANCER” (Boehringer Ingelheim Int'l GmbH Corp., priority 2021, published 2025).

Tests used:
CYP3A4 = biological target: T1, CYP3A4 (Homo sapiens, UniProt P08684); assay: Mechanism based inhibition of CYP3A4 assay (MBI 3A4); type: in vitro ADME; settings: human liver microsomes, 25 uM, hydroxy-midazolam formation 30 min vs 0 min preincubation
T1 construct: from tissue; host or cells: human liver microsomes
T1 sequence (P08684 whole entry): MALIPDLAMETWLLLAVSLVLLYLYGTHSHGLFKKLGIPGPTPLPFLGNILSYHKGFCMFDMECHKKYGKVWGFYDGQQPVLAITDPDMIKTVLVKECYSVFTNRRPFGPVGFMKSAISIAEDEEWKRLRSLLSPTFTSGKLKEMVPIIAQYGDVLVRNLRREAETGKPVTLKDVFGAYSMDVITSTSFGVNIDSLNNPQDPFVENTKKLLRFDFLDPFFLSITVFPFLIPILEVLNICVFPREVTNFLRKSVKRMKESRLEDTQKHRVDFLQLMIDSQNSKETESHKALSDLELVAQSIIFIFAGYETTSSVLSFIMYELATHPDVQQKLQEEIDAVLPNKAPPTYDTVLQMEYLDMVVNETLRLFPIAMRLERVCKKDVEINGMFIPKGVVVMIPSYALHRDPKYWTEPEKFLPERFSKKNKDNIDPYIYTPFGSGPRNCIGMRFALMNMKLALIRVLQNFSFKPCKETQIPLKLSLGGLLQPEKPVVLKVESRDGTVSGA
Description: The time dependent inhibition towards CYP3A4 is assayed in human liver microsomes (0.02 mg/mL) with midazolam (15 μM) as a substrate. The test compounds and water control (wells w/o test compound) are preincubated in presence of NADPH (1 mM) with human liver microsomes (0.2 mg/mL) at a concentration of 25 uM for 0 min and 30 min. After preincubation, the incubate is diluted 1:10 and the substrate midazolam is added for the main incubation (15 min). The main incubation is quenched with acetonitrile and the formation of hydroxy-midazolam is quantified via LC/MS-MS. The formation of hydroxy-midazolam from the 30 min preincubation relative to the formation from the 0 min preincubation is used as a readout. Values of less than 100% mean that the substrate midazolam is metabolized to a lower extent upon 30 min preincubation compared to 0 min preincubation. In general low effects upon 30 min preincubation are desired (corresponding to values close to 100%/not different to the values determined with water control).

KRAS (WT)::SOS1 = biological target: T2, KRAS (WT)::SOS1 (Homo sapiens, UniProt P01116, C118S); assay: KRAS::SOS1 AlphaScreen binding assay, KRAS WT
T2 construct: KRAS (WT) 1-169, N-terminal 6His-tag for purification, cleaved off; 6His-tag (N, cleaved yes); TEV cleavage site; made in house
T2 sequence (P01116 1-169 isoform P01116-2 C118S): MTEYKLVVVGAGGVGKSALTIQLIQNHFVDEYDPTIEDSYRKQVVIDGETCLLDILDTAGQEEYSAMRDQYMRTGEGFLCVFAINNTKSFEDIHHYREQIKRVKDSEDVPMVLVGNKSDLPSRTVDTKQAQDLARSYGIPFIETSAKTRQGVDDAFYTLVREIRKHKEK
Excerpt: This assay can be used to examine the potency with which compounds according to the invention binding to (mutated) KRAS inhibit the protein-protein interaction between SOS1 and (mutated) KRAS e.g., KRAS WT, KRAS G12C, KRAS G12D, KRAS G12V, KRAS G13D. […] Low IC50 values in this assay setting are indicative of strong inhibition of protein-protein interaction between SOS1 and KRAS:
These assays measure the inhibitory effect of compounds on KRAS mutant protein-protein interactions using the Alpha Screen technology by Perkin Elmer
The following (mutant) enzyme forms of KRAS and interacting proteins are used in these assays at the given concentrations: • KRAS (G12D) 1-169, N-terminal 6His-tag, C-terminal avi-tag (Xtal BioStructures, Inc.); final assay concentration 10 nM and SOS1 564-1049, N-terminal 229 GST-tag, TEV cleavage site (Viva Biotech Ltd); final assay concentration 5 nM; • KRAS (G12C) 1-169, N-terminal 6His-tag for purification, cleaved off, C-terminal avi-tag, biotinylated, mutations: C51S, C80L, C118S (in house); final assay concentration 7.5 nM and SOS1 564-1049, N-terminal 229 GST-tag, TEV cleavage site (Viva Biotech Ltd); final assay concentration 5 nM; • KRAS (G12V) 1-169, N-terminal 6His-tag for purification, cleaved off, C-terminal avi-tag, biotinylated, TEV cleavage site, mutation: C118S, GDP loaded (in house); final assay concentration 10 nM and SOS1 564-1049, N-terminal 229 GST-tag, TEV cleavage site (Viva Biotech Ltd); final assay concentration 10 nM; • KRAS (G13D) 1-169, N-terminal 6His-tag for purification, cleaved off, C-terminal avi-tag, biotinylated, TEV cleavage site, mutation: C118S, GDP loaded (in house); final assay concentration 10 nM and SOS1 564-1049, N-terminal 229 GST-tag, TEV cleavage site (Viva Biotech Ltd); final assay concentration 10 nM; • KRAS (WT) 1-169, N-terminal 6His-tag for purification, cleaved off, C-terminal avi-tag, biotinylated, TEV cleavage site, mutation: C118S, GDP loaded (in house); final assay concentration 10 nM and SOS1 564-1049, N-terminal 229 GST-tag, TEV cleavage site (Viva Biotech Ltd); final assay concentration 10 nM.
Test compounds dissolved in DMSO are dispensed onto assay plates (Proxiplate 384 PLUS, white, PerkinElmer; 6008289) using an Access Labcyte Workstation with the Labcyte Echo 55×. For the chosen highest assay concentration of 100 μM, 150 nL of compound solution are transferred from a 10 mM DMSO compound stock solution. A series of eleven fivefold dilutions per compound are transferred to the assay plate, compound dilutions are tested in duplicates. DMSO are added as backfill to a total volume of 150 nL.
The assays run on a fully automated robotic system in a darkened room below 100 Lux. To 150 nl of compound dilution 10 μl of a mix including KRAS mutant protein, SOS1 (final assay concentrations see above) and GDP nucleotide (Sigma G7127; final assay concentration 10 μM) in assay buffer (1×PBS, 0.1% BSA, 0.05% Tween 20) are added into columns 1-24.
After 30 minutes incubation time 5 μl of Alpha Screen bead mix in assay buffer are added into columns 1-23. Bead mix consists of AlphaLISA Glutathione Acceptor Beads (PerkinElmer, Cat No AL109) and AlphaScreen Streptavidin Donor Beads (PerkinElmer Cat No 6760002) in assay buffer at a final assay concentration of 10 μg/ml each.
Plates are kept at room temperature in a darkened incubator. After an additional 60 minutes incubation time the signal is measured in a PerkinElmer Envision HTS Multilabel Reader using the AlphaScreen specs from PerkinElmer.
Each plate contains up to 16 wells of a negative control depending on the dilution procedure (platewise or serial) (DMSO instead of test compound; with KRAS mutant::SOS1 GDP mix and bead mix; column 23) and 16wells of a positive control (DMSO instead of test compound; with KRAS mutant::SOS1 GDP mix w/o bead mix; column 24).
As internal control known inhibitors of KRAS mutant::SOS1 interaction can be measured on each compound plate. […]

Structure (SMILES) | MBI 3A4 [%] (CYP3A4) | IC50 (KRAS (WT)::SOS1) [nM]
C[C@H](Oc1cc(OCCO)nc(-c2noc3c2CCC[C@@]32CCCc3sc(N)c(C#N)c32)n1)[C@@H]1CCCN1C [II-6] | 61 | 
C[C@H](Oc1cc(Oc2nccs2)nc(-c2onc3c2CCC[C@@]32CCCc3sc(N)c(C#N)c32)n1)[C@@H]1CCCN1C [Example I-1] |  | 4
C[C@H](Oc1cc(Oc2nccs2)nc(-c2noc3c2CCC[C@@]32CCCc3sc(N)c(C#N)c32)n1)[C@@H]1CCCN1C [II-2] | 40 | 
C[C@H](Oc1cc(Nc2ncccn2)nc(-c2noc3c2CCC[C@@]32CCCc3sc(N)c(C#N)c32)n1)[C@@H]1CCCN1C [II-17] | 75 | 8
C[C@H](Oc1cc(Nc2ccccn2)nc(-c2noc3c2CCC[C@@]32CCCc3sc(N)c(C#N)c32)n1)[C@@H]1CCCN1C [II-16] | 48 | 
C[C@H](Oc1cc(O[C@H]2CCOC2)nc(-c2noc3c2CCC[C@@]32CCCc3sc(N)c(C#N)c32)n1)[C@@H]1CCCN1C [II-4] | 58 | 
C[C@H](Oc1cc(O[C@@H]2CNC[C@@H]2F)nc(-c2noc3c2CCC[C@@]32CCCc3sc(N)c(C#N)c32)n1)[C@@H]1CCCN1C [II-29] |  | 4
C[C@H](Oc1cc(O[C@@H]2CNC2(C)C)nc(-c2noc3c2CCC[C@@]32CCCc3sc(N)c(C#N)c32)n1)[C@@H]1CCCN1C [II-9] | 72 | 2
CO[C@@H]1C[C@@H]([C@H](C)Oc2cc(O[C@@H]3CNC3(C)C)nc(-c3noc4c3CCC[C@@]43CCCc4sc(N)c(C#N)c43)n2)N(C)C1 [II-30] |  | 2
C[C@H](Oc1cc(Nc2cccnn2)nc(-c2noc3c2CCC[C@@]32CCCc3sc(N)c(C#N)c32)n1)[C@@H]1CCCN1C [II-18] | 64 | 
C[C@H](Oc1cc(Oc2cncnc2)nc(-c2noc3c2CCC[C@@]32CCCc3sc(N)c(C#N)c32)n1)[C@@H]1CCCN1C [II-1] |  | 3
C[C@H](Oc1cc(OCC2(N(C)C)COC2)nc(-c2noc3c2CCC[C@@]32CCCc3sc(N)c(C#N)c32)n1)[C@@H]1CCCN1C [II-22] | 78 | 2
C[C@H](Oc1cc(O[C@@H]2CNC2(C)C)nc(-c2noc3c2CCC[C@@]32CCCc3sc(N)c(C#N)c32)n1)[C@@H]1C[C@@H](F)CN1C [II-31] |  | 2
COc1c(OCC2(N(C)C)COC2)nc(-c2noc3c2CCC[C@@]32CCCc3sc(N)c(C#N)c32)nc1O[C@@H](C)[C@@H]1CCCN1C [II-25] | 69 | 4
C[C@H](Oc1cc(Nc2cnccn2)nc(-c2noc3c2CCC[C@@]32CCCc3sc(N)c(C#N)c32)n1)[C@@H]1CCCN1C [II-14] | 67 | 10
COCCOc1cc(O[C@@H](C)[C@@H]2CCCN2C)nc(-c2noc3c2CCC[C@@]32CCCc3sc(N)c(C#N)c32)n1 [II-5] | 69 | 
C[C@H](Oc1cc(Nc2ncco2)nc(-c2noc3c2CCC[C@@]32CCCc3sc(N)c(C#N)c32)n1)[C@@H]1CCCN1C [II-13] | 52 | 7
C[C@H](Oc1cc(Oc2cncnc2)nc(-c2onc3c2CCC[C@@]32CCCc3sc(N)c(C#N)c32)n1)[C@@H]1CCCN1C [Example I-3] |  | 2
C[C@H]1CN(C)CCCN1c1cc(O[C@@H]2CNC2(C)C)nc(-c2noc3c2CCC[C@@]32CCCc3sc(N)c(C#N)c32)n1 [II-28] | 65 | 10
C[C@H](Oc1cc(Oc2cccnc2)nc(-c2onc3c2CCC[C@@]32CCCc3sc(N)c(C#N)c32)n1)[C@@H]1CCCN1C [Example I-2] |  | 4
C[C@H](Oc1cc(OCC2(N(C)C)COC2)nc(-c2onc3c2CCC[C@@]32CCCc3sc(N)c(C#N)c32)n1)[C@@H]1CCCN1C [Example I-8] | 77 | 
C[C@H](Oc1cc(OCC2(N(C)C)CC2)nc(-c2noc3c2CCC[C@@]32CCCc3sc(N)c(C#N)c32)n1)[C@@H]1CCCN1C [II-21] | 76 | 
COC[C@H](C)Nc1cc(O[C@@H](C)[C@@H]2CCCN2C)nc(-c2onc3c2CCC[C@@]32CCCc3sc(N)c(C#N)c32)n1 [Example I-5] | 61 | 
C[C@H](Oc1cc(Nc2ccncn2)nc(-c2noc3c2CCC[C@@]32CCCc3sc(N)c(C#N)c32)n1)[C@@H]1CCCN1C [II-15] | 64 | 
